From patent US6086915A, “Compositions and methods of adjusting steroid hormone metabolism through phytochemicals” (priority 1998, dated 2000)
Converted amounts (≈) assume the structure as drawn. “Also recorded” adds a separate entry of the source. Like-named read-outs stand apart in the source and are kept apart here. One block for each compound: values may come before it.

Experiments:
[1] = an hour after oral dose of I3C; cited from earlier work
[2] = solubility in water and in oil; type: physicochemical
[3] = DIM stability in simulated gastric environment and shelf-life conditions; type: physicochemical
Description: Therefore the need exists for a bioavailable formulation of DIM as well as related dimers and trimers, since hydrophobic substances like DIM are poorly absorbed.

[4] = test system: total cytochrome (CYP) enzymes; assay: Example 9: total CYP in liver microsomes of rats fed crystalline or processed DIM (Western Blots); type: in vivo, Sprague Dawley rats; conditions: males; 100 mg per kg gavage, 3 consecutive days
CYP 1A1/1A2 and 1B1 = assay: Example 10: immunoblot of CYP enzyme induction in uterine and hepatic microsomes after feeding; type: in vivo, Sprague-Dawley female rats
Procedure: CYP enzyme induction was again used as a bio-marker of bioavailability.
The study compared the enzyme induction resulting from exposure of female rats to crystalline DIM, I3C and processed DIM at relevant doses in the feed. Levels of CYP 1A1/1A2 and 1B1 were measured in uterine and hepatic microsomes as a surrogate end point of uptake and bioavailability.
A total of 30 Sprague-Dawley female rats weighing approximately 200 gms were treated as follows:
1. 5-7 day acclimatization in group cages, feeding on AIN76A minimally inducing diet.
2. 3 days feeding on same feed mixed with 7 different combinations of dietary indoles.
3. Sacrifice of animals on about day 10. Harvesting of livers and uteri following perfusion of abdominal organs to remove blood.
4. Processing of organs to obtain CYP enzyme rich microsomal fraction.
5. Immunoblot determination of levels of specific CYP enzymes by standard means using existing CYP antibodies.
Microsomes from the following groups were assayed:
Organ weight was obtained at necropsy. Specific CYP enzyme levels were compared based on standardized densitometry units. […] Results expressed as densitometry units indicating uptake of indole and degree of enzyme induction are listed according to the above groups: […]

[5] = test system: hepatic microsomal metabolism of estrogen; conditions: cited from earlier work
Human Cancer Cells = conditions: cell culture; cited from earlier work
p-glycoprotein = conditions: cited from earlier work
cultured liver cells = conditions: added directly to cultured liver cells; cited from earlier work
[6] = test system: CYP enzymes in colonic epithelium; conditions: in diet, mixed with feed; cited from earlier work
hepatic enzyme = conditions: one mg/kg of DIM in corn oil, fed; cited from earlier work
[7] = cited from earlier work
CYP 1A1/1A2 [8] = conditions: rats fed I3C; cited from earlier work
CYP 1A1/1A2 [9] = conditions: mice fed I3C; cited from earlier work
[10] = test system: 2-hydroxylation of estradiol; conditions: animals; cited from earlier work
[11] = test system: 2-hydroxylation of estradiol; conditions: cited from earlier work; for shift of estrogen metabolism: I3C, oral
CYP = conditions: cited from earlier work
[12] = oil, organic solvent or mixture, read-out: solubility in oil
[13] = water, read-out: solubility in water

SMILES: c1ccc2c(Cc3[nH]c4ccccc4c3Cc3c[nH]c4ccccc34)c[nH]c2c1 [2,3-bis[3-indolylmethyl]indole]
detection in gastric contents and stomach tissue [1]: detected in gastric contents and stomach tissue

solubility [2, 12]: 100 µg/mL (≈ 406 µM) | solubility [2, 13]: 2.5 µg/mL (≈ 10.1 µM) | shelf stability ([3]; accelerated shelf-life conditions): shelf stable | indolocarbazole generation ([3]; digestion, gastric acid, or accelerated shelf-life conditions): No indolocarbazole is generated | stability during passage through a simulated gastric environment ([3]; simulated gastric environment): entirely stable | Total CYP (nmol/mg protein), Percent of Control [4]: 140% | CYP enzyme induction, Densitometry Units (CYP 1A1/1A2 and 1B1; DIM high 10 mg/kg/day, crystalline, in feed 3 days): 0 Densitometry Units | CYP enzyme induction, Densitometry Units (CYP 1A1/1A2 and 1B1; DIM low 2 mg/kg/day, crystalline, in feed 3 days): 0 Densitometry Units
SMILES: c1ccc2c(Cc3c[nH]c4ccccc34)c[nH]c2c1 [DIM, 3,3'-diindolylmethane]
dose below which activity is lost ([5]; DIM in the diet / in sesame oil): below 5 mg per kg | potency in influencing estrogen metabolism, DIM over I3C ([5]; fed to rats): increased potency of DIM over I3C | lowest dose with enzyme inductive effects ([5]; injected intraperitoneally): 0.3 mg per kg | detection in gastric contents and stomach tissue [1]: detected in gastric contents and stomach tissue | apoptosis (Human Cancer Cells): able to support the cancer preventive behavior of apoptosis | p-glycoprotein function (p-glycoprotein; cell culture and in vivo): Inhibition of the function of the p-glycoprotein | effectiveness of chemotherapy drugs in multiply resistant cancer cells (p-glycoprotein): increase the effectiveness of chemotherapy drugs in multiply resistant cancer cells; also recorded: increased effectiveness of chemotherapeutic compounds in multiply resistant cancer cells | interaction with p-glycoprotein membrane structure (p-glycoprotein; molecular probe): direct interaction of DIM with the p-glycoprotein membrane structure | CYP enzyme induction (cultured liver cells): powerful CYP enzyme-inducer | CYP enzyme induction in colonic epithelium [6]: failed to induce CYP enzymes in colonic epithelium | hepatic enzyme induction (hepatic enzyme): no hepatic enzyme induction

CYP enzyme induction, Densitometry Units (CYP 1A1/1A2 and 1B1; I3C high 25 mg/kg/day, in feed 3 days): 5.1 Densitometry Units | CYP enzyme induction, Densitometry Units (CYP 1A1/1A2 and 1B1; I3C low 5 mg/kg/day, in feed 3 days): 0 Densitometry Units
SMILES: OCc1c[nH]c2ccccc12 [I3C, indole-3-carbinol]
loss of the original I3C ([7]; aging conditions simulating a one month period, 43800 min): approximately 50% | stability ([7]; heat, light, moisture, or acidic environments): unstable and subject to spontaneous breakdown | hepatic and intestinal levels of CYP 1A1/1A2 enzyme (CYP 1A1/1A2 [8]): increased | hepatic and intestinal levels of CYP 1A1/1A2 enzyme (CYP 1A1/1A2 [9]): increased | 2-hydroxylation of estradiol [10]: increase the 2-hydroxylation of estradiol | minimum dose ([11]; I3C dietary supplement): 300 mg per person per day | shift of estrogen metabolism [11]: beneficially shift estrogen metabolism to favor 20 H estrone | shift of estrogen metabolism ([11]; listed as indole-3-carbinol): successful in shifting estrogen metabolism to favor 20 H estrone | 2-hydroxylation of estradiol ([11]; humans): increase the 2-hydroxylation of estradiol | CYP enzyme induction in colonic epithelium [6]: powerful inductive activity

SMILES: Clc1cc2c(cc1Cl)Oc1cc(Cl)c(Cl)cc1O2 [TCDD, 2,3,7,8-Tetrachlorodibenzo-P-Dioxin]
CYP enzyme induction, Densitometry Units (CYP 1A1/1A2 and 1B1; positive control, by gavage): 251.7 Densitometry Units

SMILES: COc1ccc(-c2cc(=O)c3c(OC)c(OC)c(OC)c(OC)c3o2)cc1 [Tangeretin, 5,6,7,8,4'-pentamethoxyflavone]
CYP induction (CYP; dietary intake): associated with CYP induction

SMILES: O=c1cc(-c2ccccc2)oc2cc(O)cc(O)c12 [chrysin, 5,7-Dihydroxyflavone, reference compound]
solubility [2, 12]: 50 µg/mL (≈ 197 µM) | solubility [2, 13]: 0.7 µg/mL (≈ 2.75 µM) | CYP-related effects in rat livers (CYP; two weeks oral intake at 300 mg/kg of body weight): no CYP-related effects were noted in rat livers
